Measurements from ChEMBL document CHEMBL1126739, “Excursions in drug discovery” (J Med Chem, 1993).

Experiments:
[1] = target: T1, Angiotensin-converting enzyme (Homo sapiens, UniProt P12821); experiment: Inhibition of Angiotensin I converting enzyme
[2] = target: T2, Cholecystokinin receptor type A (Homo sapiens, UniProt P32238); experiment: Antagonistic activity against cholecystokinin type A receptor; format: functional
T2 sequence (P32238 whole entry): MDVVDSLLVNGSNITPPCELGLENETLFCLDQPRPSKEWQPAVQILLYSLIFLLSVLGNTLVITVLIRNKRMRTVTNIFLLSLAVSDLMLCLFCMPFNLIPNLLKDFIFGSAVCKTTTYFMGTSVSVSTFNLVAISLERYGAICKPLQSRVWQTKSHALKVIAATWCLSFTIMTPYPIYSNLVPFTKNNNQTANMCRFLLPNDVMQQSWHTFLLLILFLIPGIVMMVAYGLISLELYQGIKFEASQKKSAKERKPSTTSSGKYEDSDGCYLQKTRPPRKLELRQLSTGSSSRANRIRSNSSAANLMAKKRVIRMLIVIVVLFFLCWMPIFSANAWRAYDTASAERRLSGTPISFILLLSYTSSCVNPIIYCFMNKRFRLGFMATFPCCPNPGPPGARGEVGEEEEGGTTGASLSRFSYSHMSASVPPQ

[3] = target: T3, Renin (Homo sapiens, UniProt P00797); experiment: Inhibition of human renin
T3 sequence (P00797 whole entry): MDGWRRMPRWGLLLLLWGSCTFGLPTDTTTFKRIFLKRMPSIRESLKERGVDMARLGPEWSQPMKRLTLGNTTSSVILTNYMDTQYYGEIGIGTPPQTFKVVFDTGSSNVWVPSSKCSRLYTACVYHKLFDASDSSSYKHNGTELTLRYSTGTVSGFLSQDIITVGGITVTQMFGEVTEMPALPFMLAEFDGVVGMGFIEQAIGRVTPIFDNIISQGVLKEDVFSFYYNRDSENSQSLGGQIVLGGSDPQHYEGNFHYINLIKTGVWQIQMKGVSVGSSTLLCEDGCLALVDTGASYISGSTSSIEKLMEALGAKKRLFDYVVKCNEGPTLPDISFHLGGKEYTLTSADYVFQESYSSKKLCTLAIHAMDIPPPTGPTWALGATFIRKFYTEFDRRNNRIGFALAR

[4] = target: T4, Thermolysin (Bacillus thermoproteolyticus, UniProt P00800); experiment: Inhibition of metallopeptidase thermolysin
T4 sequence (P00800 whole entry): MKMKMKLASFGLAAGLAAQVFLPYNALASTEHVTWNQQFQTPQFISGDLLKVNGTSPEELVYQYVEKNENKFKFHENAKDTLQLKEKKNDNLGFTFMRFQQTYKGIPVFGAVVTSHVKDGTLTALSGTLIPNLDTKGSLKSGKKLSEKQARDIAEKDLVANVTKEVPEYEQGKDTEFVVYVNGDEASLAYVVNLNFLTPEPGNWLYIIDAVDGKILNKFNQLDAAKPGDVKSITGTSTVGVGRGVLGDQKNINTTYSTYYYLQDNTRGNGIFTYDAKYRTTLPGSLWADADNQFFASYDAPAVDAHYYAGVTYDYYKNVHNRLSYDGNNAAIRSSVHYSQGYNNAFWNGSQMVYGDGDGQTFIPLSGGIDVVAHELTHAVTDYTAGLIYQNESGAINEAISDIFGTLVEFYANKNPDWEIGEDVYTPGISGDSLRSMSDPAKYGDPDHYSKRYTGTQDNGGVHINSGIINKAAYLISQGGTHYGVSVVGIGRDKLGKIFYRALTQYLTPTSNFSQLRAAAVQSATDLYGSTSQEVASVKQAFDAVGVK

[5] = target: T1, Angiotensin-converting enzyme; experiment: Inhibition of Angiotensin I converting enzyme at 3.3 x 10 E -4M concentration

T1 sequence (P12821 whole entry): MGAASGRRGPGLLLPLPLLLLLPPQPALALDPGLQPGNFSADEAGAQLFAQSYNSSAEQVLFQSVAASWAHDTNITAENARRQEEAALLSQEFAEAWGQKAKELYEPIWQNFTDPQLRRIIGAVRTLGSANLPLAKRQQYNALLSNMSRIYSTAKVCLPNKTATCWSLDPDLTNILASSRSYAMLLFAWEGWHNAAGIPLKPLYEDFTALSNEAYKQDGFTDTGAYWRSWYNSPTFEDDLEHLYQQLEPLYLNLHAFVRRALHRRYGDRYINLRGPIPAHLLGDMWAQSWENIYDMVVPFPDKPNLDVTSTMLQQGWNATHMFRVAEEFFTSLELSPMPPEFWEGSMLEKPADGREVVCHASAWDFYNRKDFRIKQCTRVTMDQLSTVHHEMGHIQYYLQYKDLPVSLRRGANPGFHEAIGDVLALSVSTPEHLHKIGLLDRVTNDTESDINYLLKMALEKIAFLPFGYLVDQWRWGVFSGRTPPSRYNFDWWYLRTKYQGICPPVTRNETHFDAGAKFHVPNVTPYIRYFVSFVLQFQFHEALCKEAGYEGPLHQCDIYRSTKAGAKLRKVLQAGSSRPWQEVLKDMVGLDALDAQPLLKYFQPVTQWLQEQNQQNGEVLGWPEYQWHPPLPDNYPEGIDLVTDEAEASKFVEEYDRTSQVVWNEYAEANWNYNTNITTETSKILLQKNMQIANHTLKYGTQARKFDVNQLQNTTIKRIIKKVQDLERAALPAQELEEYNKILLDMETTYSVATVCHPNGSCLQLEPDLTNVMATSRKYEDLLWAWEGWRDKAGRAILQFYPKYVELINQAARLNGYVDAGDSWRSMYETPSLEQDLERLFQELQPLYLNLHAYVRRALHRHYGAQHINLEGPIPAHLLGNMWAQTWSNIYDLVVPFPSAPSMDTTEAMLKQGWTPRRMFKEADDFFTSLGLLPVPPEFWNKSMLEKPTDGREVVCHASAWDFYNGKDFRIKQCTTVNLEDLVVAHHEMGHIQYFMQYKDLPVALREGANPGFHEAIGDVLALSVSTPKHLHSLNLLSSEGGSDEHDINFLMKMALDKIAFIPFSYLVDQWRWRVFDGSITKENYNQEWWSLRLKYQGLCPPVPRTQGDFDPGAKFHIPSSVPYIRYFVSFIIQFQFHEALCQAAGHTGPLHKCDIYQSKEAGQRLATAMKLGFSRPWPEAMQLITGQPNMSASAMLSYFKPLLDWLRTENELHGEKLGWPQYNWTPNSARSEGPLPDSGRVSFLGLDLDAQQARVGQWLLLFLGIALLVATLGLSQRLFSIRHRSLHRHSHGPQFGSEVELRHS

| Compound | IC50 [1] | further results |
| --- | --- | --- |
| C[C@@H](CCC(=O)O)C(=O)N1CCCC1C(=O)O (some centres undefined) | 4900 nM |  |
| CC(C)C[C@@H]1N[C@H]2N(C1=O)c1ccccc1[C@@]2(O)C[C@@H]1NC(=O)c2ccccc2-n2c1nc1ccccc1c2=O [ASPERLICIN] |  | IC50 [2]: 1400 nM |
| CC(C)(C)S(=O)(=O)C[C@@H](Cc1ccccc1)C(=O)NC1CSCCC[C@H](CN2CCOCC2)OC(=O)[C@H](O)[C@H](CC2CCCCC2)NC1=O (some centres undefined) |  | IC50 [3]: 0.35 nM |
| CC(N[C@H](C)C(=O)N1CCC[C@H]1C(=O)O)C(=O)O (some centres undefined) | 90 nM |  |
| CC(CCC(=O)N1CCCC1C(=O)O)C(=O)O (centres undefined) | 260000 nM |  |
| CC(NP(=O)(O)CCc1ccccc1)C(=O)N1CCCC1C(=O)O (centres undefined) |  | IC50 [4]: 7 nM |
| O=C(O)CCC(=O)N1CCCC1C(=O)O (centres undefined) |  | inhibition [5]: 43% |
| O=C(CCC(=O)N1CCCC1C(=O)O)NO (centres undefined) | 50000 nM |  |
| C[C@@H](NCC(=O)O)C(=O)N1CCC[C@H]1C(=O)O | 2400 nM |  |
